Experimental data as given in ChEMBL document CHEMBL5058646 (2022).

How the values were obtained:
[1] = target: Mu-type opioid receptor (Homo sapiens, UniProt P35372); experiment: GPCRScan assay: inhibition of MOR; parameters: radioligand conc. used [nm] 1.0 – 2.0, parental cells stable HEK
[2] = target: Sigma intracellular receptor 2 (Homo sapiens, UniProt Q5BJF2); experiment: GPCRScan assay: inhibition of Sigma 2; parameters: radioligand conc. used [nm] 5.0, parental cells HEKT
[3] = target: Serine/threonine-protein kinase B-raf (Homo sapiens) (UniProt P15056); experiment: BRAF SGC Tm panel (DSF); conditions: Compound concentration 20.0 uM
[4] = target: Casein kinase II subunit alpha (Homo sapiens) (UniProt P68400); experiment: CSNK2A1 SGC Tm panel (DSF); conditions: Compound concentration 20.0 uM
[5] = target: Myotonin-protein kinase (Homo sapiens) (UniProt Q09013); experiment: DMPK1 SGC Tm panel (DSF); conditions: Compound concentration 20.0 uM
[6] = target: Mitogen-activated protein kinase 8 (Homo sapiens) (UniProt P45983); experiment: MAPK8 SGC Tm panel (DSF); conditions: Compound concentration 20.0 uM
[7] = target: Serine/threonine-protein kinase 3 (Homo sapiens) (UniProt Q13188); experiment: STK3 SGC Tm panel (DSF); conditions: Compound concentration 20.0 uM
[8] = target: Transcription initiation factor TFIID subunit 1 (Homo sapiens) (UniProt P21675); experiment: TAF1 SGC Tm panel (DSF); conditions: Compound concentration 20.0 uM
Sequence of Transcription initiation factor TFIID subunit 1 (Homo sapiens) (P21675 whole entry): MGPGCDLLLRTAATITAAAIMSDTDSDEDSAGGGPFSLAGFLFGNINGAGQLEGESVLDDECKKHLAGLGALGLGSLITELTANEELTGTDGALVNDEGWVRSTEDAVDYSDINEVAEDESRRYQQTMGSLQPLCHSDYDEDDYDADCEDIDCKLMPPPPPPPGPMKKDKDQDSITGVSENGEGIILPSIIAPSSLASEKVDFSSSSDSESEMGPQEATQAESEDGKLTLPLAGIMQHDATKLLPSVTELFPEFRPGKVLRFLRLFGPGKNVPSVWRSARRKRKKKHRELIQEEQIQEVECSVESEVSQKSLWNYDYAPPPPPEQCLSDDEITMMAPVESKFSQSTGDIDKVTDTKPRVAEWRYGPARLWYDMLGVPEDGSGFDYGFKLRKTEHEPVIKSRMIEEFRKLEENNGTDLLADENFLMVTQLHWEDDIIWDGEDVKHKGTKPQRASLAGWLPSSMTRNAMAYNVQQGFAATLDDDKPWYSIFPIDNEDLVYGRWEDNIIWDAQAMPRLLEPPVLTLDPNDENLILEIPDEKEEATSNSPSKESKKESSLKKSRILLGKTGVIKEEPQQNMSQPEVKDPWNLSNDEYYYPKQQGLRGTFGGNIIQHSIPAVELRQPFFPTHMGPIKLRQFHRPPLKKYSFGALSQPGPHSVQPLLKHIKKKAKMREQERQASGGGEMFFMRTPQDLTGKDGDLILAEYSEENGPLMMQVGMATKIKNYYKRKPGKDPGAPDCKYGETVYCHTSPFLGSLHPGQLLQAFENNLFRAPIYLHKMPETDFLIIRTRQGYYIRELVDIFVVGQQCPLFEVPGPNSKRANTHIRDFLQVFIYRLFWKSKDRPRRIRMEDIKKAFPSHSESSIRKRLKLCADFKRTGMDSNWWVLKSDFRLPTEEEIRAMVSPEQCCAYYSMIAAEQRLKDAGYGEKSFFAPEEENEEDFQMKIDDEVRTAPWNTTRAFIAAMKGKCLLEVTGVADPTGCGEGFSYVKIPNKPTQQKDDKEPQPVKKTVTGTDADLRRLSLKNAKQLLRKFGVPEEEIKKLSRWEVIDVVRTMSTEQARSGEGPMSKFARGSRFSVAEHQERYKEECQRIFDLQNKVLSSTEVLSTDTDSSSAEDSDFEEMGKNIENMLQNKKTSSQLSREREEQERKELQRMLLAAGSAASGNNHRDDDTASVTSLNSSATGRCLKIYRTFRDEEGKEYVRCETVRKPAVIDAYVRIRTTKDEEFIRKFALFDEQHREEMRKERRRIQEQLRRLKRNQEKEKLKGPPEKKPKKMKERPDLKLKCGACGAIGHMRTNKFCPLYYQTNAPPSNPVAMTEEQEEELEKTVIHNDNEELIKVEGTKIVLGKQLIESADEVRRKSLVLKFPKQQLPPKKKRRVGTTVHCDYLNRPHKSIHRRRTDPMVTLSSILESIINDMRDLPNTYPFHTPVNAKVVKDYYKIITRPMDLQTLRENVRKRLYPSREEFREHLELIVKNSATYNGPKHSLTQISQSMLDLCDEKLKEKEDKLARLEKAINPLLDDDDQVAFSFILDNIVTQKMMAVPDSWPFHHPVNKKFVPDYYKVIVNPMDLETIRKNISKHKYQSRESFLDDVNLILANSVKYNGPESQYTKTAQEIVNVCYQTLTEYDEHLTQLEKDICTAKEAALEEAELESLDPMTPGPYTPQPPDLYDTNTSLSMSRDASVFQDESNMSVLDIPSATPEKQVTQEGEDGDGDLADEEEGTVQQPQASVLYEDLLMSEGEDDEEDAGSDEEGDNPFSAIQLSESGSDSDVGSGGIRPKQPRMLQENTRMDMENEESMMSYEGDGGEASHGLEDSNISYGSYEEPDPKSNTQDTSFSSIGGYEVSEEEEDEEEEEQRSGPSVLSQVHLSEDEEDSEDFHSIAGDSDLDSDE

[9] = target: Serine/threonine-protein kinase VRK1 (Homo sapiens) (UniProt Q99986); experiment: VRK1 SGC Tm panel (DSF); conditions: Compound concentration 20.0 uM
[10] = target: D(2) dopamine receptor (Homo sapiens) (UniProt P14416); conditions: Compound concentration 10.0 uM
[11] = target: D(1B) dopamine receptor (Homo sapiens) (UniProt P21918); conditions: Compound concentration 10.0 uM
[12] = target: Sodium-dependent dopamine transporter (Homo sapiens, UniProt Q01959); conditions: Compound concentration 10.0 uM
Sequence of Sodium-dependent dopamine transporter (Q01959 whole entry): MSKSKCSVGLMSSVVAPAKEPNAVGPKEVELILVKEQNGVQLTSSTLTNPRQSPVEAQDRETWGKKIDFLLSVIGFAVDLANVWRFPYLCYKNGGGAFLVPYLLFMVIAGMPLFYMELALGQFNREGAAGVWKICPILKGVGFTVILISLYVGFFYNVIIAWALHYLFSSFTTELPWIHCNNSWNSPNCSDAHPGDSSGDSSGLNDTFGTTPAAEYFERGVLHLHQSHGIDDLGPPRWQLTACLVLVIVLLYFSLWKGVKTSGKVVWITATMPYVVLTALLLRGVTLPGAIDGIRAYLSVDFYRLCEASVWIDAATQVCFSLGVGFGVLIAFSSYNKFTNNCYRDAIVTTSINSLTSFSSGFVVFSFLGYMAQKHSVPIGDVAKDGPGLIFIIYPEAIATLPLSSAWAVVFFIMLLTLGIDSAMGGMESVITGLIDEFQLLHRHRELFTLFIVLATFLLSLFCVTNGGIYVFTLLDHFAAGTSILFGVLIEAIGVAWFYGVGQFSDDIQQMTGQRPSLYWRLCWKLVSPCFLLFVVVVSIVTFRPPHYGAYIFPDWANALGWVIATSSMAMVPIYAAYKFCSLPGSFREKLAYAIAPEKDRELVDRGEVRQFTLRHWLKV

[13] = target: Histamine H1 receptor (Homo sapiens) (UniProt P35367); conditions: Compound concentration 10.0 uM
[14] = target: Alpha-2C adrenergic receptor (Homo sapiens) (UniProt P18825); conditions: Compound concentration 10.0 uM
[15] = target: Beta-1 adrenergic receptor (Homo sapiens) (UniProt P08588); conditions: Compound concentration 10.0 uM
[16] = target: Muscarinic acetylcholine receptor M5 (Homo sapiens) (UniProt P08912); conditions: Compound concentration 10.0 uM
[17] = target: Sigma non-opioid intracellular receptor 1 (Homo sapiens) (UniProt Q99720); conditions: Compound concentration 10.0 uM
[18] = target: B-cell lymphoma 6 protein (Homo sapiens, UniProt P41182); conditions: SUD4, Compound concentration 1.0 uM
[19] = target: T1, Zinc finger and BTB domain-containing protein 9 (Homo sapiens) (UniProt Q96C00); conditions: SUD4, Compound concentration 1.0 uM
T1 sequence (whole entry): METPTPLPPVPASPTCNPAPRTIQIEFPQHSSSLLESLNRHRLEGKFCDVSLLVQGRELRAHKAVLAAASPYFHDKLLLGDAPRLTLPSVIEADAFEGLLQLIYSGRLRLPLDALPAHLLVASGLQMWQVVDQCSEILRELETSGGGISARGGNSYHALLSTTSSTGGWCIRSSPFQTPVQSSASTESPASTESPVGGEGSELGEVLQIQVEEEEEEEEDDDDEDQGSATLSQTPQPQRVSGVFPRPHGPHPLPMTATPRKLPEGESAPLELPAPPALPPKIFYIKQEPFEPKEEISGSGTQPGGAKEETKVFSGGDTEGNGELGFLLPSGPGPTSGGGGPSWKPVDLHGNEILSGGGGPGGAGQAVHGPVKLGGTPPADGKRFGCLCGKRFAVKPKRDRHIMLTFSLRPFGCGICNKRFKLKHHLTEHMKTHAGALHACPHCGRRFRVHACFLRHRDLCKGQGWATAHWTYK

[20] = target: Protein archease (Homo sapiens) (UniProt Q8IWT0); conditions: SUD4, Compound concentration 1.0 uM
Sequence of Protein archease (Homo sapiens) (Q8IWT0 whole entry, the tested form may be a part): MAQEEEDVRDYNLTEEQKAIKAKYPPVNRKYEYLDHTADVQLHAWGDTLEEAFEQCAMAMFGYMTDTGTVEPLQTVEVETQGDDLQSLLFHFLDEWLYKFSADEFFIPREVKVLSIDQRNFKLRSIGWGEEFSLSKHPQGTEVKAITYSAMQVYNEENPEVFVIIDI

[21] = target: T2, Zinc finger and BTB domain-containing protein 2 (Homo sapiens) (UniProt Q8N680); conditions: OCI-Ly1, Compound concentration 1.0 uM
T2 sequence (whole entry): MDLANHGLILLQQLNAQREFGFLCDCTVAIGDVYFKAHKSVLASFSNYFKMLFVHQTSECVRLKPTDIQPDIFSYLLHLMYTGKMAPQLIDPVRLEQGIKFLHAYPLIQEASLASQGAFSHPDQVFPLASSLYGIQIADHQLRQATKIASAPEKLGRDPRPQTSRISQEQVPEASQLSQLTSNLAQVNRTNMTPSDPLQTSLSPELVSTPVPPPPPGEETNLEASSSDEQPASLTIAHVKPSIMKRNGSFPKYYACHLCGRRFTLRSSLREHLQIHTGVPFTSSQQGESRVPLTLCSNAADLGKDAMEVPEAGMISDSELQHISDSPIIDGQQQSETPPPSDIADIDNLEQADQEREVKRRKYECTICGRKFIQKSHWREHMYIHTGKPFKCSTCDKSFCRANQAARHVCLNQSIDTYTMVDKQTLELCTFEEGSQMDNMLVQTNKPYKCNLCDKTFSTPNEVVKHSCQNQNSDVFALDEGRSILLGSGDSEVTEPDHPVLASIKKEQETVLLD

[22] = target: Serine/threonine-protein kinase MRCK alpha (Homo sapiens) (UniProt Q5VT25); experiment: CDC42BPA SGC Tm panel (DSF); conditions: Compound concentration 20.0 uM
Sequence of Serine/threonine-protein kinase MRCK alpha (Homo sapiens) (Q5VT25 whole entry, looked up): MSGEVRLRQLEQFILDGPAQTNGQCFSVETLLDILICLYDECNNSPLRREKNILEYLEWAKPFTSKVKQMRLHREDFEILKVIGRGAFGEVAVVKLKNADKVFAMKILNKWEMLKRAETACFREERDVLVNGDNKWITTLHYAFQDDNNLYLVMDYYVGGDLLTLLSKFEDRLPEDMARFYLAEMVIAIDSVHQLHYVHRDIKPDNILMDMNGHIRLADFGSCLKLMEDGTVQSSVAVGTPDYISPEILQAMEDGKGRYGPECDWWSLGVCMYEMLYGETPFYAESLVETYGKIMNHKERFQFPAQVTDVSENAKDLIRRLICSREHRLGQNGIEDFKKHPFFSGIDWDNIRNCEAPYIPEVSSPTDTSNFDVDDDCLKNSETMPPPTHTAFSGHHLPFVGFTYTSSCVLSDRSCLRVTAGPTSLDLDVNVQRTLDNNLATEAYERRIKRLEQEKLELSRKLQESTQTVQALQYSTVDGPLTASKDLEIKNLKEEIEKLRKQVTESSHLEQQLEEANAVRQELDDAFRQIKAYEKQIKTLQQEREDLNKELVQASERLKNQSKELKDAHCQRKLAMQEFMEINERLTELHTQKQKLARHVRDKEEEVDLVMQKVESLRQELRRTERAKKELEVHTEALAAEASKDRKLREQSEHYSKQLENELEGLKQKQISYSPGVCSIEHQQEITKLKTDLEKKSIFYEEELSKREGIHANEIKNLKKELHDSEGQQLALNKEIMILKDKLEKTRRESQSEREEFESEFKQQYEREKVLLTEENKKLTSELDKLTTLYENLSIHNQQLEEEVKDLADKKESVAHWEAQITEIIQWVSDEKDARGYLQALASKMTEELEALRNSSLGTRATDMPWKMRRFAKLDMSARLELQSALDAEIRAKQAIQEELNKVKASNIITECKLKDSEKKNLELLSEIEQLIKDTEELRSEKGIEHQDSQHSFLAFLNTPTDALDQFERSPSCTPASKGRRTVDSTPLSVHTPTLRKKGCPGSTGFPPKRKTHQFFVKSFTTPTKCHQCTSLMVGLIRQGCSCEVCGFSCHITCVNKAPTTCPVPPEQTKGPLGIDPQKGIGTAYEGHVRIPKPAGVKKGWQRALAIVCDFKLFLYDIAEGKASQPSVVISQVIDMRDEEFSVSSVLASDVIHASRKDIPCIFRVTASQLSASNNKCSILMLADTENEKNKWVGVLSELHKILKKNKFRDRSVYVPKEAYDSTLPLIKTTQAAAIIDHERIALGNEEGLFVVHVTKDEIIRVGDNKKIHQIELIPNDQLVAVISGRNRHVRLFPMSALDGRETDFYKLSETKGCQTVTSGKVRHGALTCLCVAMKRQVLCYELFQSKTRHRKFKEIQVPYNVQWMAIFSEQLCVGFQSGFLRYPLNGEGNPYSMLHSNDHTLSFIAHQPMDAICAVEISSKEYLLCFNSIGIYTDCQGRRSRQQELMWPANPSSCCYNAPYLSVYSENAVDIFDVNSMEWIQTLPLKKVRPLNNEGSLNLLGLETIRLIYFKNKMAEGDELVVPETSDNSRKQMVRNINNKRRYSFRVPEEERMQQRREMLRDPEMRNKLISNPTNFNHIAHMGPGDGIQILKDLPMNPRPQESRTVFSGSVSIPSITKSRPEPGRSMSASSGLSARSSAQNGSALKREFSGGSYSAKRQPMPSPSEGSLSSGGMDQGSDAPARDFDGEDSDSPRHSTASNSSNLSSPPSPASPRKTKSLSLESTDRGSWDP

Sequence of Mu-type opioid receptor (P35372 whole entry): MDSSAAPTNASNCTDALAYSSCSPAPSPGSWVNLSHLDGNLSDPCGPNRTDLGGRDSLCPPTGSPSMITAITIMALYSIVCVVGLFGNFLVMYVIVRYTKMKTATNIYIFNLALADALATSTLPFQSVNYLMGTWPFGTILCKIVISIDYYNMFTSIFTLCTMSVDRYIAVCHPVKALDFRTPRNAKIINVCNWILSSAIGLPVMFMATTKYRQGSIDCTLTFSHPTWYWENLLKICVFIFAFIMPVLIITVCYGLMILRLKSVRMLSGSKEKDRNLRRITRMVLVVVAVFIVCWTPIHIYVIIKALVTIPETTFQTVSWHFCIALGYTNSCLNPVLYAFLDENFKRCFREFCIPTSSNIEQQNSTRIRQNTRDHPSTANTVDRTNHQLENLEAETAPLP
Sequence of Sigma intracellular receptor 2 (Q5BJF2 whole entry): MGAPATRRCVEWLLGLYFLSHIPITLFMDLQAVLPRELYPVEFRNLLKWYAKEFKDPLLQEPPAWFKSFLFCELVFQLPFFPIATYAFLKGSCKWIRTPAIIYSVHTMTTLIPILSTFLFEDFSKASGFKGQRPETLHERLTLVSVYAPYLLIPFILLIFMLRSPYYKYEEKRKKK

Ki ([1]; read-out: Ki): 872 nM | Ki ([1]; read-out: pKi (converted)): 851 nM | Ki [2]: 2500 nM | Tm [3]: 39 °C | Tm [4]: 44 °C | Tm [5]: 50 °C | Tm [6]: 43 °C | Tm [7]: 47 °C | Tm [8]: 56 °C | Tm [9]: 46 °C | inhibition [10]: 20.8% | inhibition [11]: 26.2% | inhibition [12]: 50.8% | inhibition [13]: 10.3% | inhibition [14]: 15.1% | inhibition [15]: -2.67% | inhibition [16]: 20.6% | inhibition [17]: 47.4% | LogFC [18]: -1.2 | LogFC [19]: -0.0222 | LogFC [20]: 0.104 | LogFC [21]: 0.239 | Tm [22]: 43 °C
Compound: C[C@@H]1CN(c2ncc(Cl)c(Nc3ccc4c(c3)n(CCC(C)(C)O)c(=O)n4C)n2)C[C@H](C)C1(F)F
